pEC50: −log10 of the molar value.
Target: T1, T1R umami taste receptor (Homo sapiens, UniProt Q7RTX0+Q7RTX1)
T1 sequence (Q7RTX1 21-841): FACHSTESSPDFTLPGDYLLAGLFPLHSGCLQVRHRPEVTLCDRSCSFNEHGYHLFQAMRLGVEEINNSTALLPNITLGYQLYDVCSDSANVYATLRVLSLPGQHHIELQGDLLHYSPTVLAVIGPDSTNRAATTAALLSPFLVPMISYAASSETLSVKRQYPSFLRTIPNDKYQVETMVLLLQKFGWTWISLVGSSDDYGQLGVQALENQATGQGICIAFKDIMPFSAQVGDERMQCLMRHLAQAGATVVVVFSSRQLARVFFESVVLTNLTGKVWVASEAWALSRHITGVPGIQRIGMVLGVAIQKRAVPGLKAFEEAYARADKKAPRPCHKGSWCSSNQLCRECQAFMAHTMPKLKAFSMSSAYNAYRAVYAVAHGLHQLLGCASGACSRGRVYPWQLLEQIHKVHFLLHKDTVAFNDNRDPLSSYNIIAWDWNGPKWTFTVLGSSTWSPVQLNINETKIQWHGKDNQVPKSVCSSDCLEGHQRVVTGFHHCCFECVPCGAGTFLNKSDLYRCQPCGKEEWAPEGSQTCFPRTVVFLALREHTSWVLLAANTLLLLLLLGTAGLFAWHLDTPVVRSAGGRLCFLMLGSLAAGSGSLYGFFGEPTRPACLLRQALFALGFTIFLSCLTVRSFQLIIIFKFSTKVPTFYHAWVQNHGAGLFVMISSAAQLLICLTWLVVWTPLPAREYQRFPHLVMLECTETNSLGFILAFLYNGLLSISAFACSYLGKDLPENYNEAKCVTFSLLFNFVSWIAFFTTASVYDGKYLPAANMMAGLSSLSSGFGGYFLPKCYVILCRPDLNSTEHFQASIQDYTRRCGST
T1 sequence (Q7RTX0 21-852): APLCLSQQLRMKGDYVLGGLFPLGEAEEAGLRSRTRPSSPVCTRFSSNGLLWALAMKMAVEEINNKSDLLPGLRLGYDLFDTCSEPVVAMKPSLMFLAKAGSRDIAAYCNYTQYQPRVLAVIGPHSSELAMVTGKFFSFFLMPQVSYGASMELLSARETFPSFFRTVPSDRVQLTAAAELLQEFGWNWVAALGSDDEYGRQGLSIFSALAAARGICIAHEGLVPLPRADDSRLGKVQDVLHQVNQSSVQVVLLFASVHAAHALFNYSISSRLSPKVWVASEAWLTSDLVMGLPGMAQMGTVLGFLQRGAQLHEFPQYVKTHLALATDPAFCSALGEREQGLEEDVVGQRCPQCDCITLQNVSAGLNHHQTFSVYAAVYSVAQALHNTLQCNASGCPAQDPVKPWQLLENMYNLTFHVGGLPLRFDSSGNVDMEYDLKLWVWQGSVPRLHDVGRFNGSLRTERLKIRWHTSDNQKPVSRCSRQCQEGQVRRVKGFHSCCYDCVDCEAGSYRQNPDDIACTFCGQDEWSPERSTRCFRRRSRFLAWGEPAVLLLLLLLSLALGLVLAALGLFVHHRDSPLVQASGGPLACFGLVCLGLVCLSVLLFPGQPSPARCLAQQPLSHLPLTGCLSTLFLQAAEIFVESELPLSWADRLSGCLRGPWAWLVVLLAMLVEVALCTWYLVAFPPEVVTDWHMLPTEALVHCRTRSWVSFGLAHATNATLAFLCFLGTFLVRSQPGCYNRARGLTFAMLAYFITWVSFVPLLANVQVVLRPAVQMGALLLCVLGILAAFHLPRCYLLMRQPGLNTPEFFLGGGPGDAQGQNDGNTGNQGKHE
Test: in vitro cell-based assay having cells that express the T1R umami taste receptor (enhancement of MSG)
Details: for pEC50: cells expressing T1R umami taste receptor, read-out: EC50 for enhancement of MSG binding
Procedure: Each of Compounds 101-183 was synthesized according to one of the general procedures set forth above in Examples 1. Thereafter, the compounds were tested in an in vitro cell-based assay having cells that express the T1R umami taste receptor. Dose-binding curves were recorded and the EC50 was determined for enhancement of MSG binding. Table 2 sets forth the calculated EC50 values for certain tested compounds as well as the MSG enhancement ratio at a particular concentration.

Structure (SMILES)	pEC50	MSG Enh. Ratio (compound at 3 μM)	MSG Enh. Ratio (compound at 50 μM)	MSG Enh. Ratio (compound at 10 μM)	MSG Enh. Ratio (compound at 0.3 μM)
CCOC(=O)[C@H](CC(C)C)NC(=O)/C=C/c1ccccc1 [Compound 135, Ethyl cinnamoyl-L-leucinate]	–	–	5.3 @	–	–
CC[C@H](C)[C@H](NC(=O)c1ccc(OC)c(OC)c1)C(=O)OC [Compound 125, Methyl (3,4-dimethoxybenzoyl)-L-isoleucinate]	< 4.30	–	2.7 @	–	–
CCOC(=O)C[C@H](NC(=O)/C=C/c1ccccc1)C(=O)OCC [Compound 138, Diethyl cinnamoyl-L-aspartate]	< 4.30	–	2.0 @	–	–
CCOC(=O)[C@@H](NC(=O)/C=C/c1ccc2c(c1)OCO2)C(C)C [Compound 159, Ethyl (E)-(3-(benzo[d][1,3]dioxol-5-yl)acryloyl)-L-valinate]	< 4.30	–	5.8 @	–	–
CCC/C=C/C(=O)N[C@@H](CCC(=O)OCC)C(=O)OCC [Compound 178, Diethyl (E)-hex-2-enoyl-L-glutamate]	< 4.30	–	5.6 @	–	–
COC(=O)[C@@H](NC(=O)c1ccc2c(c1)OCO2)C(C)C [Compound 127, Methyl (benzo[d][1,3]dioxole-5-carbonyl)-L-valinate]	< 4.30	–	3.4 @	–	–
C/C=C/C(=O)N[C@@H](Cc1ccccc1)C(=O)OC [Compound 167, Methyl (E)-but-2-enoyl-L-phenylalaninate]	< 4.30	–	2.1 @	–	–
COC(=O)[C@H](Cc1ccccc1)NC(=O)c1cccc(OC)c1 [Compound 107, Methyl (3-methoxybenzoyl)-L-phenylalaninate]	< 4.30	–	3.2 @	–	–
COC(=O)[C@H](CC(C)C)NC(=O)c1ccc(C)cc1 [Compound 103, Methyl (4-methylbenzoyl)-L-leucinate]	< 4.30	–	3.4 @	–	–
C/C=C/C=C/C(=O)N[C@@H](Cc1ccccc1)C(=O)OCC [Compound 180, Ethyl ((2E,4E)-hexa-2,4-dienoyl)-L-phenylalaninate]	< 4.30	–	3.4 @	–	–
C/C=C/C=C/C(=O)N[C@H](C(=O)OCC)C(C)C [Compound 179, Ethyl ((2E,4E)-hexa-2,4-dienoyl)-L-valinate]	< 4.30	–	3.0 @	–	–
CCOC(=O)[C@@H](NC(=O)c1ccc(COC)cc1)C(C)C [Compound 110, Ethyl (4-(methoxymethyl)benzoyl)-L-valinate]	< 4.30	–	2.7 @	–	–
CCOC(=O)[C@H](Cc1ccccc1)NC(=O)/C=C/c1ccc(OC)c(OC)c1 [Compound 158, Ethyl (E)-(3-(3,4-dimethoxyphenyl)acryloyl)-L-phenylalaninate]	–	–	–	4.8 @	–
CCOC(=O)[C@@H](NC(=O)c1ccc2ccccc2n1)C(C)C [Compound 133, Ethyl (quinoline-2-carbonyl)-L-valinate]	< 4.30	–	2.7 @	–	–
C/C=C/C=C/C(=O)N[C@H](C(=O)OCC)[C@@H](C)CC [Compound 183, Ethyl ((2E,4E)-hexa-2,4-dienoyl)-L-isoleucinate]	< 4.30	–	2.8 @	–	–
CCC/C=C/C(=O)N[C@H](C(=O)OCC)C(C)C [Compound 175, Ethyl (E)-hex-2-enoyl-L-valinate]	< 4.30	–	4.4 @	–	–
CCOC(=O)[C@H](Cc1ccccc1)NC(=O)/C=C/c1ccccc1 [Compound 141, Ethyl cinnamoyl-L-phenylalaninate]	–	–	–	5.5 @	–
C/C=C/C=C/C(=O)N[C@@H](CCC(=O)OCC)C(=O)OCC [Compound 182, Diethyl ((2E,4E)-hexa-2,4-dienoyl)-L-glutamate]	< 4.30	–	3.4 @	–	–

The remaining lines, values ahead:

pEC50	MSG Enh. Ratio (compound at 3 μM)	MSG Enh. Ratio (compound at 50 μM)	MSG Enh. Ratio (compound at 10 μM)	MSG Enh. Ratio (compound at 0.3 μM)	Structure (SMILES)
4.92	7.5 @	–	–	–	CCOC(=O)CC[C@H](NC(=O)c1ccc2c(c1)OCO2)C(=O)OCC [Compound 129, Diethyl (benzo[d][1,3]dioxole-5-carbonyl)-L-glutamate]
6.00	–	–	–	–	CCOC(=O)[C@@H](CC(C)C)NC(=O)/C=C/c1ccc(OC)cc1 [Compound 150, Ethyl (E)-(3-(4-methoxyphenyl)acryloyl)-D-leucinate]
7.00	–	–	–	–	COC(=O)[C@@H](CC(C)C)NC(=O)/C=C/c1ccc(OC)cc1 [Compound 144, Methyl (E)-(3-(4-methoxyphenyl)acryloyl)-D-leucinate]
6.15	–	–	–	–	COC(=O)[C@@H](CC(C)C)NC(=O)c1ccc(C)c(C)c1 [Compound 114, Methyl (3,4-dimethylbenzoyl)-D-leucinate]
< 4.30	–	–	3.3 @	–	COC(=O)[C@H](Cc1ccccc1)NC(=O)c1ccc(C)cc1 [Compound 104, Methyl (4-methylbenzoyl)-L-phenylalaninate]
< 4.30	–	2.4 @	–	–	CCOC(=O)[C@@H](NC(=O)/C=C/c1ccc2c(c1)OCO2)[C@@H](C)CC [Compound 163, Ethyl ((E)-3-(benzo[d][1,3]dioxol-5-yl)acryloyl)-L-isoleucinate]
4.52	–	–	3.6 @	–	CCC/C=C/C(=O)N[C@H](C(=O)OC)[C@@H](C)CC [Compound 174, Methyl ((E)-hex-2-enoyl)-L-isoleucinate]
4.96	4.5 @	–	–	–	COC(=O)[C@H](CC(C)C)NC(=O)/C=C/c1ccc(OC)cc1 [Compound 149, Methyl (E)-(3-(4-methoxyphenyl)acryloyl)-L-leucinate]
5.32	7.0 @	–	–	–	CCOC(=O)[C@@H](NC(=O)c1ccc(C)c(C)c1)C(C)C [Compound 118, Ethyl (3,4-dimethylbenzoyl)-L-valinate]
4.64	–	–	5.4 @	–	CCOC(=O)[C@@H](NC(=O)/C=C/c1ccccc1)C(C)C [Compound 136, Ethyl cinnamoyl-L-valinate]
4.92	–	–	5.6 @	–	CCOC(=O)CC[C@H](NC(=O)/C=C/c1ccccc1)C(=O)OCC [Compound 140, Diethyl cinnamoyl-L-glutamate]
6.00	–	–	–	8.1 @	CCOc1ccc(/C=C/C(=O)N[C@@H](Cc2ccccc2)C(=O)OC)cc1 [Compound 155, Methyl (E)-(3-(4-ethoxyphenyl)acryloyl)-L-phenylalaninate]
~4.40	–	8.8 @	–	–	CCC/C=C/C(=O)N[C@@H](Cc1ccccc1)C(=O)OCC [Compound 177, Ethyl (E)-hex-2-enoyl-L-phenylalaninate]
6.00	–	–	–	7.4 @	CCOC(=O)[C@@H](NC(=O)/C=C/c1ccc(OCC)cc1)C(C)C [Compound 153, Ethyl (E)-(3-(4-ethoxyphenyl)acryloyl)-L-valinate]
4.92	–	–	7.0 @	–	CCOC(=O)[C@H](Cc1ccc(OC)cc1)NC(=O)c1ccc(C)c(C)c1 [Compound 121, Ethyl (S)-2-(3,4-dimethylbenzamido)-3-(4-methoxyphenyl)propanoate]
> 5.70	–	–	–	–	CCOC(=O)[C@@H](CC(C)C)NC(=O)c1ccc(C)cc1 [Compound 102, Ethyl (4-methylbenzoyl)-D-leucinate]
< 4.70	–	–	2.9 @	–	CCOC(=O)CC[C@H](NC(=O)/C=C/c1ccc2c(c1)OCO2)C(=O)OCC [Compound 161, Diethyl (E)-(3-(benzo[d][1,3]dioxol-5-yl)acryloyl)-L-glutamate]
